This note sets out measurements from US20120157439A1, “RAF INHIBITOR COMPOUNDS AND METHODS OF USE THEREOF” (GENENTECH, INC., priority 2009, published 2012).

The test addresses T1, V600E full-length B-Raf (Homo sapiens, UniProt P15056, V600E).
T1 construct: 1 μM FSBA-MEK and 20 nM V600E full-length B-Raf; made in house; host or cells: sf9 insect cells (baculovirus)
In words: B-Raf IC50 Assay (B-RAF V600E inhibition assay, Example A). The test is classed as biochemical. The source says:
Determining the activity of Raf in the sample is possible by a number of direct and indirect detection methods (US 2004/0082014). Activity of human recombinant B-Raf protein may be assessed in vitro by assay of the incorporation of radio labeled phosphate to recombinant MAP kinase (MEK), a known physiologic substrate of B-Raf, according to US 2004/0127496 and WO 03/022840. The activity/inhibition of V600E full-length B-Raf was estimated by measuring the incorporation of radio labeled phosphate from [γ-33P]ATP into FSBA-modified wild-type MEK (see Example A).
Activity of human recombinant B-Raf protein may be assessed in vitro by assay of the incorporation of radio labeled phosphate to recombinant MAP kinase (MEK), a known physiologic substrate of B-Raf, according to U.S. Patent Appl. Publication No. 2004/0127496 and WO 03/022840. Catalytically active human recombinant B-Raf protein is obtained by purification from sf9 insect cells infected with a human B-Raf recombinant baculovirus expression vector.
The activity/inhibition of V600E full-length B-Raf was estimated by measuring the incorporation of radio labeled phosphate from [γ-33P]ATP into FSBA-modified wild-type MEK. The […] assay mixtures contained 25 mM Na Pipes, pH 7.2, 100 mM KCl, 10 mM MgCl2, 5 mM β-glycerophosphate, 100 μM Na Vanadate, 4 μM ATP, 500 nCi [γ-33P]ATP, 1 μM FSBA-MEK and 20 nM V600E full-length B-Raf. Incubations were carried out at 22° C. in a Costar 3365 plate (Corning). Prior to the assay, the B-Raf and FSBA-MEK were preincubated together in assay buffer at 1.5× (20 μL of 30 nM and 1.5 μM, respectively) for 15 minutes, and the assay was initiated by the addition of 10 μL of […]. Following the 60-minute incubation, the assay mixtures were quenched by the addition of 100 μL of 25% TCA, the plate was mixed on a rotary shaker for 1 minute, and the product was captured on a Perkin-Elmer GF/B filter plate using a Tomtec Mach III Harvester. After sealing the bottom of the plate, 35 μL of Bio-Safe II (Research Products International) scintillation cocktail were added to each well and the plate was top-sealed and counted in a Topcount NXT (Packard).

[1] abbreviates: B-Raf V600E assay of Example A: less than 100 nM, read-out: IC50.
Where [2] appears, read: B-Raf V600E assay of Example A: less than about 1 μM, read-out: IC50.
Setting [3] is: incorporation of radio labeled phosphate from [γ-33P]ATP into FSBA-modified wild-type MEK, 4 μM ATP, 20 nM V600E full-length B-Raf, 60-minute incubation, 22° C., read-out: BRAF V600E IC50.

Structures are written as SMILES. Where two headings read alike, the source gives them in different places. Bounds are passed on as bounds.

T1 sequence (P15056 whole entry V600E): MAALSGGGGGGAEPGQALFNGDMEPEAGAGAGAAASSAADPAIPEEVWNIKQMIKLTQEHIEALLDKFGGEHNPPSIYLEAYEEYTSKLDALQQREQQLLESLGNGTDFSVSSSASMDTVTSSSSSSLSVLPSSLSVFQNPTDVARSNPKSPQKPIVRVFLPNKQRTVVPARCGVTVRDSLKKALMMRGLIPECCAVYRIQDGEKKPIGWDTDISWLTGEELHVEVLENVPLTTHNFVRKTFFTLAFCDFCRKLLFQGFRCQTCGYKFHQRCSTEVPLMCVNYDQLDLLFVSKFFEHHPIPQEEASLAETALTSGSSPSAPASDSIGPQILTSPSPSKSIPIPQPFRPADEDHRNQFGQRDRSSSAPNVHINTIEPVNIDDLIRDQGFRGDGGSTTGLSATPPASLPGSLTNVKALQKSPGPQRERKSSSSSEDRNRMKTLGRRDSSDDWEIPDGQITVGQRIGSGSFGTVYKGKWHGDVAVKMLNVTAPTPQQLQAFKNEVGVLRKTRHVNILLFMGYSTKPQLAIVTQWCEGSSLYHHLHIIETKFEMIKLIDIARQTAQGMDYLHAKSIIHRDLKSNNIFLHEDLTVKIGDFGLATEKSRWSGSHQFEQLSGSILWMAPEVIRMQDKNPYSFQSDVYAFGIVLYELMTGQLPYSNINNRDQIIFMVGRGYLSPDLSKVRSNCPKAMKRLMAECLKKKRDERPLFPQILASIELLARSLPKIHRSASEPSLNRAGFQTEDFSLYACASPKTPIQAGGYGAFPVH

Take `CCCS(=O)(=O)Nc1ccc(F)c(NC(=O)c2csc3c(NC4CC4)ncnc23)c1Cl` [Example 43, 4-Cyclopropylamino-thieno[3,2-d]pyrimidine-7-carboxylic acid [2-chloro-6-fluoro-3-(propane-1-sulfonylamino)-phenyl]-amide]: the IC50 is under 100 nM under setting [1], under 1000 nM under setting [2] and 1.9 nM under setting [3].
`CCCS(=O)(=O)Nc1cccc(NC(=O)c2csc3c(N)ncnc23)c1F` [Example 26, 4-Amino-thieno[3,2-d]pyrimidine-7-carboxylic acid[2-fluoro-3-(propane-1-sulfonylamino)-phenyl]-amide]: the IC50 under setting [1] was under 100 nM, the IC50 under setting [2] was under 1000 nM and the IC50 under setting [3] worked out at 20 nM.
Take `Nc1ncnc2c(C(=O)Nc3c(F)ccc(NS(=O)(=O)CCCF)c3F)nsc12` [Example 31, 7-Amino-isothiazolo[4,5-d]pyrimidine-3-carboxylic acid [2,6-difluoro-3-(3-fluoro-propane-1-sulfonylamino)-phenyl]-amide]: the IC50 was under 100 nM under setting [1], under 1000 nM under setting [2] and 0.82 nM under setting [3].
For the compound `CCCS(=O)(=O)Nc1ccc(F)c(NC(=O)c2csc3c(NCCOC)ncnc23)c1F` [Example 60, 4-(2-Methoxy-ethylamino)-thieno[3,2-d] pyrimidine-7-carboxylic acid [2,6-difluoro-3-(propane-1-sulfonylamino)-phenyl]-amide], the IC50 runs as follows: under setting [2], under 1000 nM; under setting [3], 177 nM.
As for `CCCS(=O)(=O)Nc1ccc(Cl)c(NC(=O)c2csc3c(N)ncnc23)c1Cl` [Example 9, 4-Amino-thieno[3,2-d]pyrimidine-7-carboxylic acid[2,6-dichloro-3-(propane-1-sulfonylamino)-phenyl]-amide], the IC50 was under 100 nM under setting [1], under 1000 nM under setting [2] and 0.1 nM under setting [3].
With `O=C(Nc1c(Cl)ccc(NS(=O)(=O)CCCF)c1Cl)c1csc2cncnc12` [Example 110, Thieno[3,2-d]pyrimidine-7-carboxylic acid [2,6-dichloro-3-(3-fluoro-propane-1-sulfonyl-amino)-phenyl]-amide], the IC50 reads like this: under setting [1], under 100 nM; under setting [2], under 1000 nM; under setting [3], 2.69 nM.
For the compound `O=C(Nc1c(Cl)ccc(NS(=O)(=O)CCCF)c1Cl)c1csc2c(NC3CC3)ncnc12` [Example 82, 4-Cyclopropyl-amino-thieno [3,2-d] pyrimidine-7-carboxylic acid [2,6-dichloro-3-(3-fluoro-propane-1-sulfonyl-amino)-phenyl]-amide], the IC50 under setting [1] was under 100 nM, the concentration for half-maximal inhibition (IC50) under setting [2] is under 1000 nM and the IC50 under setting [3] is 0.13 nM.
Taken in the same sequence, the figures for `O=C(Nc1c(Cl)ccc(NS(=O)(=O)CCCF)c1F)c1csc2c(NC3CC3)ncnc12` [Example 84, 4-Cyclopropyl-amino-thieno [3,2-d] pyrimidine-7-carboxylic acid [6-chloro-2-fluoro-3-(3-fluoropropane-1-sulfonyl-amino)-phenyl]-amide] were under 100 nM, under 1000 nM and 0.25 nM.
With `CCCS(=O)(=O)Nc1ccc(Cl)c(NC(=O)c2csc3c(NC4CC4)ncnc23)c1Cl` [Example 66, 4-Cyclopropylamino-thieno[3,2-d]pyrimidine-7-carboxylic acid [2,6-dichloro-3-(propane-1-sulfonylamino)-phenyl]-amide], the half-maximal inhibitory concentration (IC50) under setting [1] was under 100 nM, the IC50 under setting [2] was under 1000 nM and the half-inhibitory concentration (IC50) under setting [3] is 0.2 nM.
As for `CCCS(=O)(=O)Nc1ccc(Cl)c(NC(=O)c2csc3c(NC4COC4)ncnc23)c1Cl` [Example 68, 4-(Oxetan-3-ylamino)-thieno[3,2-d] pyrimidine-7-carboxylic acid [2,6-dichloro-3-(propane-1-sulfonyl-amino)-phenyl]-amide], the IC50 by setting is: under setting [1], under 100 nM; under setting [2], under 1000 nM; under setting [3], 1.8 nM.
For `CCCS(=O)(=O)Nc1ccc(F)c(NC(=O)c2csc3c(NC)ncnc23)c1F` [Example 46, 4-Methylamino-thieno[3,2-d]pyrimidine-7-carboxylic acid [2,6-difluoro-3-(propane-1-sulfonylamino)-phenyl]-amide], the IC50 is, setting by setting: under setting [1], under 100 nM; under setting [2], under 1000 nM; under setting [3], 49.6 nM.
Taken in the same sequence, the figures for `CCCS(=O)(=O)Nc1ccc(F)c(NC(=O)c2csc3c(Nc4ccccn4)ncnc23)c1F` [Example 62, 4-(Pyridin-2-ylamino)-thieno[3,2-d] pyrimidine-7-carboxylic acid [2,6-difluoro-3-(propane-1-sulfonylamino)-phenyl]-amide] were under 100 nM, under 1000 nM and 27.1 nM.
Consider `CCCNc1ncnc2c(C(=O)Nc3c(F)ccc(NS(=O)(=O)CCC)c3Cl)csc12` [Example 45, 4-Propylamino-thieno[3,2-d]pyrimidine-7-carboxylic acid [2-chloro-6-fluoro-3-(propane-1-sulfonylamino)-phenyl]-amide], for which the IC50 was under 100 nM under setting [1], under 1000 nM under setting [2] and 4.1 nM under setting [3].
With `CCCNc1ncnc2c(C(=O)Nc3c(F)ccc(NS(=O)(=O)CCC)c3F)csc12` [Example 49, 4-Propylamino-thieno[3,2-d] pyrimidine-7-carboxylic acid [2,6-difluoro-3-(propane-1-sulfonylamino)-phenyl]-amide], the IC50 is, setting by setting: under setting [1], under 100 nM; under setting [2], under 1000 nM; under setting [3], 10.9 nM.
Taken in the same sequence, the figures for `CCCS(=O)(=O)Nc1ccc(Cl)c(NC(=O)c2csc3c(NCC)ncnc23)c1Cl` [Example 76, 4-Ethylamino-thieno[3,2-d] pyrimidine-7-carboxylic acid [2,6-dichloro-3-(propane-1-sulfonyl-amino)-phenyl]-amide] were under 100 nM, under 1000 nM and 0.6 nM.
For `CCCS(=O)(=O)Nc1ccc(F)c(NC(=O)c2snc3c(N)ncnc23)c1F` [Example 34, 7-Amino-isothiazolo[4,3-d]pyrimidine-3-carboxylic acid [2,6-difluoro-3-(propane-1-sulfonylamino)-phenyl]-amide], the IC50 runs as follows: under setting [1], under 100 nM; under setting [2], under 1000 nM; under setting [3], 5 nM.
The corresponding values for `CCCS(=O)(=O)Nc1ccc(Cl)c(NC(=O)c2csc3c(N)ncnc23)c1F` [Example 7, 4-Amino-thieno[3,2-d] pyrimidine-7-carboxylic acid [6-chloro-2-fluoro-3-(propane-1-sulfonyl-amino)-phenyl]-amide] are under 100 nM, under 1000 nM and 1.01 nM.
The corresponding values for `CCCS(=O)(=O)Nc1ccc(F)c(NC(=O)c2c[nH]c3c(N)ncnc23)c1F` [Example 102, 4-Amino-5H-pyrrolo[3,2-d]pyrimidine-7-carboxylic acid [2,6-difluoro-3-(propane-1-sulfonylamino)-phenyl]-amide] are under 100 nM, under 1000 nM and 20.6 nM.
As for `Cc1ncnc2c(C(=O)Nc3c(Cl)ccc(NS(=O)(=O)CCCF)c3Cl)csc12` [Example 39, 4-Methyl-thieno[3,2-d]pyrimidine-7-carboxylic acid [2,6-dichloro-3-(3-fluoro-propane-1-sulfonylamino)-phenyl]-amide], the IC50 under setting [1] is under 100 nM, the IC50 under setting [2] is under 1000 nM and the IC50 under setting [3] turned out to be 1.11 nM.
In the case of `CCCS(=O)(=O)Nc1ccc(Cl)c(NC(=O)c2csc3c(NC4CCC(F)(F)CC4)ncnc23)c1Cl` [Example 80, 4-(4,4-Difluoro-cyclohexyl-amino)-thieno[3,2-d] pyrimidine-7-carboxylic acid [2,6-dichloro-3-(propane-1-sulfonyl-amino)-phenyl]-amide], the IC50 by setting is: under setting [2], under 1000 nM; under setting [3], 419 nM.
In the case of `Nc1ncnc2c(C(=O)Nc3c(F)ccc(NS(=O)(=O)CCCF)c3Cl)csc12` [Example 15, 4-Amino-thieno[3,2-d] pyrimidine-7-carboxylic acid [2-chloro-6-fluoro-3-(3-fluoro-propane-1-sulfonylamino)-phenyl]-amide], the IC50 by setting is: under setting [1], under 100 nM; under setting [2], under 1000 nM; under setting [3], 0.2 nM.

A word on the IC50: it is the concentration needed to halve the response being measured.
